Source: patent US20210030022A1, “NOVEL USE OF SUBSTITUTED CHROMAN-6-OLS” (DSM IP ASSETS B.V., priority 2018, published 2021)

Legend:
Settings in all cases: Oxipres 70° C., 5 bar O2, equimolar to BHT; EV relative to BHT (EV=1)
[1] = Oxipres antioxidant efficacy value (EV) in fish meal
Method: (§1) Oxidative stability was assessed using an Oxipres (Mikrolab Aarhus A/S, Hojbjerg, Denmark). The ML OXIPRES® is designed to monitor the oxidation of heterogeneous products. Consumption of oxygen results in a pressure drop which is measured by means of pressure transducers. The samples are heated to accelerate the process and shorten the analysis time (Mikrolab Aarhus 2012).
(§2) Sample weights were 50 g. They were loaded into the Oxipres vessels and placed inside the stainless-steel pressure vessel and sealed. The pressure vessels were purged with pure oxygen and filled to an initial oxygen pressure of 5 bar and maintained at 70° C. during measurement (D. Ying, L. Edin, L. Cheng, L. Sanguansri, M. A. Augustin, LWT—Food Science and Technology 2015, 62, 1105-1111: “Enhanced oxidative stability of extruded product containing polyunsaturated oils.”).
(§3) The oxygen pressure was recorded as function of time. After sample load and temperature rise the pressure in the device is increasing within 10 hours up to the starting pressure. Thereafter it is decreasing. Consequently, the starting pressure is considered as being the pressure after 10 hours. The analysis ends after 130 hours at 70° C. The oxygen consumption ‘O2’ of the tested sample is calculated as follows: […]
(§4) A factor of protection called ‘EV’ (Efficacy Value) was developed to quantify with a relative number (relative to BHT) the antioxidant effect of the tested candidates. EV was calculated as follows:
(§5) EV, being relative to BHT (3,5-di-tert-butyl-4-hydroxy-toluene) (EV=1), makes it possible to compare the antioxidant compounds in a defined feed application.
(§6) Each of the compounds of formulae (1) to (6) were mixed into each matrix 1, 2 or 3 (pet food, poultry meal, fish meal) in an equimolar ratio compared to BHT. Batches of 200 g feed were produced in order to handle a minimum of 30 mg of antioxidant. First, a 1% pre-dilution of the antioxidant with the feed material was made. Then this pre-dilution was added to the final batch, mixed, sieved (1.25 mm sieve) and mixed using a turbula mixer. Thereafter 55 g of the final batch were packed into polyethylene bags, and stored at 4° C. until start of the Oxipres assay. Spare sample were stored at 4° C. Compound of formula (3) was measured in all three matrices. Compound of formula (1) was measured in matrix 1 and 2. Compound of formula (2) was measured in matrix 2. Compounds of formulae (4), (5) and (6) were measured in matrix 3. An efficacy value 0.7 has been considered as acceptable, an efficacy value ≥ the efficacy value of alpha-tocopherol as good, and an efficacy value ≥ the efficacy value of BHT as very good.

[2] = Oxipres antioxidant efficacy value (EV) in pet food
Method: as §1, §2, §3, §4, §5, §6

[3] = Oxipres antioxidant efficacy value (EV) in poultry meal
Method: as §1, §2, §3, §4, §5, §6

| SMILES | EV in Fish meal [1] | EV in pet food [2] | EV in poultry meal [3] |
| --- | --- | --- | --- |
| Cc1cc(C(C)(C)C)c(O)c(C(C)(C)C)c1 [BHT, 3,5-di-tert-butyl-4-hydroxy-toluene, reference compound] | 1 | 1 | 1 |
| Cc1c(C)c2c(c(C)c1O)CCC(C)(C)O2 [Compound of formula (5), 2,2,5,7,8-pentamethyl-chroman-6-ol] | 1.08 |  |  |
| CC1CCc2cc(O)ccc2O1 (centres unmarked) [Compound of formula (2), 2-methyl-chroman-6-ol] |  |  | 1.09 |
| Cc1c(C)c2c(c(C)c1O)CC[C@@](C)(CCC[C@H](C)CCC[C@H](C)CCCC(C)C)O2 [alpha-tocopherol, reference compound] | 0.88 | 0.77 | 0.74 |
